Key:
[1] = organism: Rattus norvegicus; experiment: Anti-angiogenic activity as inhibition of microvessel growth in rat aortic ring cultured in a fibrin clot; type: functional; details: Aorta
[2] = Compound was evaluated for ocular toxicity assessed after oral dosing at 40 mg/kg b.i.d. in male Wistar rat; Yes; type: organism-based, Eye; parameters: dose 40 mg/kg, route oral; details: in vivo
[3] = Compound was evaluated for ocular toxicity assessed after oral dosing at 40 mg/kg b.i.d. in male Wistar rat; No; type: organism-based, Eye; parameters: dose 40 mg/kg, route oral; details: in vivo
[4] = system: 3LL cell line; experiment: In vivo anti-tumor and anti-metastatic activity was measured after oral dosing 15 mg/kg b.i.d. to B6D2F1 mice bearing metastatic 3LL Lewis lung tumor; type: functional; details: Mus musculus
[5] = Compound was evaluated for ocular toxicity assessed after oral dosing at 40 mg/kg b.i.d. in male Wistar rat; Very weak; type: organism-based, Eye; parameters: dose 40 mg/kg, route oral; details: in vivo
[6] = system: 3LL cell line; experiment: In vivo anti-tumor and anti-metastatic activity was measured after oral dosing b.i.d. to B6D2F1 mice bearing metastatic 3LL Lewis lung tumor; type: functional, Mus musculus

Compound | IC50 [1] | Eye toxicity [3] | further results
Cc1nsc(-c2ccc(N3CCN(c4cccc(Cl)c4)CC3)nn2)n1 | 0.6 nM |  | Eye toxicity [2]: Yes
Cc1nsc(-c2nccc(N3CCN(c4cccc(C(F)(F)F)c4)CC3)n2)n1 | > 100 nM | No toxicity | 
CN(C)c1nsc(-c2ccc(N3CCC(N4CCN(c5cccc(C(F)(F)F)c5)CC4)CC3)nn2)n1 | < 1 nM |  | inhibition in vivo at 15 mg/kg [4]: 25%; Eye toxicity [5]: Very weak
Cc1nsc(-c2ccc(N3CCN(c4ccc(C(F)(F)F)cc4)CC3)nn2)n1 | 12 nM |  | 
Cc1nsc(-c2ccc(N3CCN(c4ccccc4C(F)(F)F)CC3)nn2)n1 | 0.2 nM |  | Eye toxicity [2]: Yes
FC(F)(F)c1cccc(N2CCN(c3ccc(-c4ncns4)nn3)CC2)c1 | 70 nM | No toxicity | 
Cc1nsc(-c2ccc(N3CCN(c4cccc([N+](=O)[O-])c4)CC3)nn2)n1 | 3 nM |  | Eye toxicity [2]: Yes
Cc1nsc(-c2ccc(N3CCN(c4cccc(C(F)(F)F)c4)CC3)nn2)n1 | 0.3 nM |  | Eye toxicity [2]: Yes
FC(F)(F)c1cccc(NC2CCN(c3ccc(-c4ncns4)nn3)CC2)c1 | 7 nM | No toxicity | inhibition in vivo at 15 mg/kg [4]: 42%
CNc1nsc(-c2ccc(N3CCN(c4cccc(C(F)(F)F)c4)CC3)nn2)n1 | 3 nM | No toxicity | 
Cc1nsc(-c2ccc(N3CCN(c4cccc(F)c4)CC3)nn2)n1 | 6 nM |  | 
COc1cccc(N2CCN(c3ccc(-c4nc(C)ns4)nn3)CC2)c1 | 7 nM |  | 
Cc1nsc(-c2ccc(N3CCN(c4cc(Cl)cc(Cl)c4)CC3)nn2)n1 | < 0.1 nM |  | Eye toxicity [2]: Yes
FC(F)(F)c1cccc(N2CCN(C3CCN(c4ccc(-c5ncns5)nn4)CC3)CC2)c1 | 0.3 nM | No toxicity | inhibition in vivo at 15 mg/kg [4]: 54%
CN(C)c1nsc(-c2ccc(N3CCN(c4cccc(C(F)(F)F)c4)CC3)nn2)n1 |  | No toxicity | inhibition in vivo at 15 mg/kg [4]: 39%
Cc1nsc(-c2ccc(N3CCN(c4cccc(C(F)(F)F)c4)CC3)nc2)n1 | 5 nM | No toxicity | 
FC(F)(F)c1cc(N2CCN(c3ccc(-c4ncns4)nn3)CC2)cc(C(F)(F)F)c1 | < 1 nM | No toxicity | Inhibition [6]: 24%
Cc1nsc(-c2ccnc(N3CCN(c4cccc(C(F)(F)F)c4)CC3)n2)n1 | > 100 nM |  | 
Nc1nsc(-c2ccc(N3CCN(c4cccc(C(F)(F)F)c4)CC3)nn2)n1 | 20 nM | No toxicity | 
CCc1nsc(-c2ccc(N3CCN(c4cccc(C(F)(F)F)c4)CC3)nn2)n1 | 8 nM | No toxicity | 
Cc1nsc(-c2ccc(N3CCN(c4cccc(C(F)(F)F)c4)CC3)cc2)n1 | 10 nM | No toxicity | 
Cc1nsc(-c2ccc(N3CCN(c4cccc(N)c4)CC3)nn2)n1 | > 100 nM |  | 
Cc1nsc(-c2ccc(N3CCN(c4cc(C(F)(F)F)cc(C(F)(F)F)c4)CC3)nn2)n1 | < 0.1 nM |  | Eye toxicity [2]: Yes
Cc1nsc(-c2ccc(N3CCN(c4cccc(C#N)c4)CC3)nn2)n1 | 3 nM |  | 
CN(C)c1nsc(-c2ccc(N3CCN(c4ccccc4)CC3)nn2)n1 | 0.1 nM | No toxicity | inhibition in vivo at 15 mg/kg [4]: 13%
